Reference: article PMC12096242 (ACS Omega, 2025)

Biological target: T1, TcGLIP (MBP-TcGLIP) (Tanacetum cinerariifolium, UniProt H6U1I8)
T1 sequence (H6U1I8 28-365): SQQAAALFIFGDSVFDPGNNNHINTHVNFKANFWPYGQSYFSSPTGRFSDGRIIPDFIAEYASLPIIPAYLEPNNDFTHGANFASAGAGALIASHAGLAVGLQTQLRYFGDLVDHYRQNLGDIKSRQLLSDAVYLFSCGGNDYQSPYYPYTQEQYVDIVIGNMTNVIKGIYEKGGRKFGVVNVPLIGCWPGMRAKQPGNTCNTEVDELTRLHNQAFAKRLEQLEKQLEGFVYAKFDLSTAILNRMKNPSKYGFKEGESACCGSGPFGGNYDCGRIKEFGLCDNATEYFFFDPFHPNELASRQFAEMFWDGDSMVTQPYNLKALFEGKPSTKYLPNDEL
Assay: HPLC

| SMILES | IC50 [nM] |
| --- | --- |
| C=C/C=C\CC1=C(C)[C@@H](O[P@@](=O)(CCCCC)Oc2ccc([N+](=O)[O-])cc2)CC1=O [1a] | 23.4 |
| C=C/C=C\CC1=C(C)[C@@H](O[P@](=O)(CCCCC)Oc2ccc([N+](=O)[O-])cc2)CC1=O [1b] | 245 |
| C/C=C\CC1=C(C)[C@@H](O[P@@](=O)(CCCCC)Oc2ccc([N+](=O)[O-])cc2)CC1=O [2a, (S)p, (S)c-2-Methyl-4-oxo-3-((Z)-2-buten-1-yl)cyclopent-2-en-1-yl 4-Nitrophenyl n-Pentylphosphonate] | 29.5 |
| C/C=C\CC1=C(C)[C@@H](O[P@](=O)(CCCCC)Oc2ccc([N+](=O)[O-])cc2)CC1=O [2b, (R)p, (S)c-2-Methyl-4-oxo-3-((Z)-2-buten-1-yl)cyclopent-2-en-1-yl 4-Nitrophenyl n-Pentylphosphonate] | 347 |
| CC/C=C\CC1=C(C)[C@@H](O[P@@](=O)(CCCCC)Oc2ccc([N+](=O)[O-])cc2)CC1=O [3a, (S)p, (S)c-2-Methyl-4-oxo-3-((Z)-2-penten-1-yl)cyclopent-2-en-1-yl 4-Nitrophenyl n-Pentylphosphonate] | 40.7 |
| CC/C=C\CC1=C(C)[C@@H](O[P@](=O)(CCCCC)Oc2ccc([N+](=O)[O-])cc2)CC1=O [3b, (R)p, (S)c-2-Methyl-4-oxo-3-((Z)-2-penten-1-yl)cyclopent-2-en-1-yl 4-Nitrophenyl n-Pentylphosphonate] | 316 |
| C=C/C=C\CC1=C(C)[C@@H](O[P@@](=O)(CCCCCCCC)Oc2ccc([N+](=O)[O-])cc2)CC1=O [4a] | 69.2 |
| C=C/C=C\CC1=C(C)[C@@H](O[P@](=O)(CCCCCCCC)Oc2ccc([N+](=O)[O-])cc2)CC1=O [4b] | 14.1 |
| C/C=C\CC1=C(C)[C@@H](O[P@@](=O)(CCCCCCCC)Oc2ccc([N+](=O)[O-])cc2)CC1=O [5a, (S)p, (S) c-2-Methyl-4-oxo-3-((Z)-2-buten-1-yl)cyclopent-2-en-1-yl 4-Nitrophenyl n-Octylphosphonate] | 120 |
| C/C=C\CC1=C(C)[C@@H](O[P@](=O)(CCCCCCCC)Oc2ccc([N+](=O)[O-])cc2)CC1=O [5b, (R)p, (S)c-2-Methyl-4-oxo-3-((Z)-2-buten-1-yl)cyclopent-2-en-1-yl 4-Nitrophenyl n-Octylphosphonate] | 27.5 |
| CC/C=C\CC1=C(C)[C@@H](O[P@@](=O)(CCCCCCCC)Oc2ccc([N+](=O)[O-])cc2)CC1=O [6a, (S)p, (S)c-2-Methyl-4-oxo-3-((Z)-2-penten-1-yl)cyclopent-2-en-1-yl 4-Nitrophenyl n-Octylphosphonate] | 309 |
| CC/C=C\CC1=C(C)[C@@H](O[P@](=O)(CCCCCCCC)Oc2ccc([N+](=O)[O-])cc2)CC1=O [6b, (R)p, (S)c-2-Methyl-4-oxo-3-((Z)-2-penten-1-yl)cyclopent-2-en-1-yl 4-Nitrophenyl n-Octylphosphonate] | 38 |
